In patent US20190224341A1, “RENAL CLEARABLE ORGANIC NANOCARRIERS” (The General Hospital Corporation, priority 2016, published 2019):

Assay: In vivo biodistribution and pharmacokinetics in CD-1 mice
Settings: i.v. 10 nmol
Protocol: Six weeks old CD-1 mice (male; 25-30 g) were purchased from Charles River Laboratories (Wilmington, Mass.). Mice were maintained under anesthesia by intraperitoneal injection with 100 mg/kg ketamine and 10 mg/kg xylazine (Webster Veterinary, Fort Devens, MA) for the entire duration of the experiment. The end of the tail was cut to enable blood extraction. Before injection, blood was then sampled in heparinized capillary tubes (Fisher Scientific, Pittsburgh, Pa.) as a reference and collected blood was stored in an ice box to prevent clotting. […] Mice were imaged using the in-house built real-time intraoperative MR imaging system. A 760 nm excitation laser source (4 mW/cm) was used with white light (400-650 nm; 40,000 lux). Color and MR fluorescence images were acquired simultaneously with customized software at rates of up to 15 Hz over a field of view with 15 cm in diameter. After 4 h post-injection, mice were sacrificed to image organs and collected urine from the bladder. At least 3 mice were analyzed for each sample.
The collected blood samples were centrifuged for 20 min at 3000 rpm in order to separate serum and blood plasma, and supernatants were then filled into capillary microtubes. Fluorescence intensities of the microtubes were measured using the in-house built MR imaging system. […]

Q: Which “Signal-to-background ratio (SBR) of each organ against muscle” value (4 h, resected organs) does the source give for `CC1(C)C(/C=C/C2=C(c3ccc(CCC(=O)O)cc3)C(=C/C=C3/N(CCC[N+](C)(C)C)c4ccc(S(=O)(=O)O)cc4C3(C)C)/CCC2)=[N+](CCC[N+](C)(C)C)c2ccc(S(=O)(=O)O)cc21` [ZW800-1C] here?
A: highest SBR in the kidneys

Q: What about the “Biodistribution by NIR fluorescence imaging” value (4 h post-injection) of the same compound?
A: excretes to the bladder 4 h after injection
